Data on three compounds can be found in publication PMC9482650, “Quantitative fragmentomics allow affinity mapping of interactomes” (Nature Communications, 2022).

Ends that are not written are not given here.

Some targets named below: LNX2_2 PDZ (Homo sapiens, UniProt Q8N448); GOPC PDZ (Homo sapiens, UniProt Q9HD26); RADIL PDZ (Homo sapiens, UniProt Q96JH8); Inadl_8 PDZ (Homo sapiens, UniProt Q8NI35); Inadl_5 PDZ (Homo sapiens, UniProt Q8NI35); MPDZ_10 PDZ (Homo sapiens, UniProt O75970).
Holding throughout (assay): Holdup assay
Common to all, as to format: binding

In a further assay the target is MAGI2_6 PDZ (Homo sapiens, UniProt Q86UL8). The settings on record: composite holdup affinity; 0.00=below quantification threshold; read-out: COMP pKd (converted).
The target in another assay is DLG5_2 PDZ (Homo sapiens, UniProt Q8TDM6). The settings on record: sheet PPI_convert; read-out: affinity to PDZ DLG5_2 (converted).
Another assay deals with DLG5_4 PDZ (Homo sapiens, UniProt Q8TDM6). As to conditions: sheet PPI_convert; read-out: affinity to PDZ DLG5_4 (converted).
Another assay addresses IL16_2 PDZ (Homo sapiens, UniProt Q14005). The settings on record: sheet PPI_convert; read-out: affinity to PDZ IL16_2 (converted).
Another assay has as its target MAGI1_3 PDZ (Homo sapiens, UniProt Q96QZ7). As to conditions: sheet PPI_convert; read-out: affinity to PDZ MAGI1_3 (converted).
The next assay addresses MAGI1_5 PDZ (Homo sapiens, UniProt Q96QZ7). As to conditions: sheet PPI_convert; read-out: affinity to PDZ MAGI1_5 (converted).
Another assay deals with MAGI1_6 PDZ (Homo sapiens, UniProt Q96QZ7). The settings on record: sheet PPI_convert; read-out: affinity to PDZ MAGI1_6 (converted).
Another assay addresses MAGI3_4 PDZ (Homo sapiens, UniProt Q5TCQ9). As to conditions: sheet PPI_convert; read-out: affinity to PDZ MAGI3_4 (converted).
For the next assay, the target named is MAGI3_6 PDZ (Homo sapiens, UniProt Q5TCQ9). The settings on record: sheet PPI_convert; read-out: affinity to PDZ MAGI3_6 (converted).
A further assay concerns the target MAGIX PDZ (Homo sapiens, UniProt Q9H6Y5). The settings on record: sheet PPI_convert; read-out: affinity to PDZ MAGIX (converted). An excerpt:
Supplement 41467_2022_33018_MOESM4_ESM.xlsx, sheet "PPI_convert" | column: MAGIX

Another assay concerns the target MLLT4 PDZ (Homo sapiens, UniProt P55196). As to conditions: sheet PPI_convert; read-out: affinity to PDZ MLLT4 (converted). An excerpt:
Supplement 41467_2022_33018_MOESM4_ESM.xlsx, sheet "PPI_convert" | column: MLLT4

The next assay has as its target MPDZ_4 PDZ (Homo sapiens, UniProt O75970). The settings on record: sheet PPI_convert; read-out: affinity to PDZ MPDZ_4 (converted). An excerpt:
Supplement 41467_2022_33018_MOESM4_ESM.xlsx, sheet "PPI_convert" | column: MPDZ_4

The next assay concerns the target MPP3 PDZ (Homo sapiens, UniProt Q13368). The settings on record: sheet PPI_convert; read-out: affinity to PDZ MPP3 (converted).
The target of a further assay is NHERF2_1 PDZ (Homo sapiens, UniProt Q15599). As to conditions: sheet PPI_convert; read-out: affinity to PDZ NHERF2_1 (converted).
In a further assay the target is NHERF4_3 PDZ (Homo sapiens, UniProt Q86UT5). As to conditions: sheet PPI_convert; read-out: affinity to PDZ NHERF4_3 (converted).
In a further assay the target is PARD3B_3 PDZ (Homo sapiens, UniProt Q8TEW8). As to conditions: sheet PPI_convert; read-out: affinity to PDZ PARD3B_3 (converted).
For the next assay, the target named is PDLIM4 PDZ (Homo sapiens, UniProt P50479). The settings on record: sheet PPI_convert; read-out: affinity to PDZ PDLIM4 (converted). An excerpt:
Supplement 41467_2022_33018_MOESM4_ESM.xlsx, sheet "PPI_convert" | column: PDLIM4

A further assay concerns the target PDZD2_5 PDZ (Homo sapiens, UniProt O15018). The settings on record: sheet PPI_convert; read-out: affinity to PDZ PDZD2_5 (converted).
The next assay has as its target PDZRN3_2 PDZ (Homo sapiens, UniProt Q9UPQ7). As to conditions: sheet PPI_convert; read-out: affinity to PDZ PDZRN3_2 (converted).
The target in a further assay is DFNB31_1 PDZ (Homo sapiens, UniProt Q9P202). The settings on record: composite holdup affinity; 0.00=below quantification threshold; read-out: COMP pKd (converted).
Chain of DFNB31_1 PDZ (Q9P202 140-223 limits assumed): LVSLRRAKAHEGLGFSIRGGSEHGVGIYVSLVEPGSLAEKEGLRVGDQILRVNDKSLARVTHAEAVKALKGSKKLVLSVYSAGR

Chain of PDLIM4 PDZ (P50479 1-84 limits assumed): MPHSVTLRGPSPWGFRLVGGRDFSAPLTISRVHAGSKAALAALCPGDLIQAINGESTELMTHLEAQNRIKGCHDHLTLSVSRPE
Chain of MAGIX PDZ (Q9H6Y5 125-209): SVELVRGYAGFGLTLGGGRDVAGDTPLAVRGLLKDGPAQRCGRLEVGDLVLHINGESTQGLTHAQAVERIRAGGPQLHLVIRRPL
Chain of DLG5_2 PDZ (Q8TDM6 705-796 limits assumed): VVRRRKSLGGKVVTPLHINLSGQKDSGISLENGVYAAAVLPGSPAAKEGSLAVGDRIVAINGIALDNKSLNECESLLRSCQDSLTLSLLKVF
Chain of PARD3B_3 PDZ (Q8TEW8 498-585 limits assumed): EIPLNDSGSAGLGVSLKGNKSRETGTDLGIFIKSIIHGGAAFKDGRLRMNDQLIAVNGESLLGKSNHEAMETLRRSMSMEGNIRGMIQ
Chain of NHERF4_3 PDZ (Q86UT5 329-412 limits assumed): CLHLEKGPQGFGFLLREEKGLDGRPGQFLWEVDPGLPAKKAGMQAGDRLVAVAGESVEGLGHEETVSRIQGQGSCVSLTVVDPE
Chain of Inadl_5 PDZ (Q8NI35 686-772 limits assumed): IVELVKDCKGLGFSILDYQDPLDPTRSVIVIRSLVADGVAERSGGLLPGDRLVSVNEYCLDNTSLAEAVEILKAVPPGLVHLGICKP
Chain of MAGI3_6 PDZ (Q5TCQ9 1021-1103 limits assumed): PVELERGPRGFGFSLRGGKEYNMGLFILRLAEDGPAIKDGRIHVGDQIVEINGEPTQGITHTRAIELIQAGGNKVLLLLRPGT
Chain of PDZRN3_2 PDZ (Q9UPQ7 419-503 limits assumed): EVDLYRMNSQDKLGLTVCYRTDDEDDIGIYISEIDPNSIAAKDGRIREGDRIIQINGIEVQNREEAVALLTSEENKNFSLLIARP
Chain of MPP3 PDZ (Q13368 137-212 limits assumed): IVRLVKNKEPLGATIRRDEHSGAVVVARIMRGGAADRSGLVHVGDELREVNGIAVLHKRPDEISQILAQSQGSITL
Chain of MPDZ_10 PDZ (O75970 1629-1712 limits assumed): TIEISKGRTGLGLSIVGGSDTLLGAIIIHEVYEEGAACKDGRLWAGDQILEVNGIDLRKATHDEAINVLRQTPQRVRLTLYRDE
Chain of RADIL PDZ (Q96JH8 976-1061 limits assumed): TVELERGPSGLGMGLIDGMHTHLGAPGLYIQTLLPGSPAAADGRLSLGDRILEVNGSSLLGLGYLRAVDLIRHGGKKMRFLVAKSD
Chain of MAGI3_4 PDZ (Q5TCQ9 726-808 limits assumed): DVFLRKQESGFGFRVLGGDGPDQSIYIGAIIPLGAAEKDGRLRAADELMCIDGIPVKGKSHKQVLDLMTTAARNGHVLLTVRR
Chain of MLLT4 PDZ (P55196 1007-1093 limits assumed): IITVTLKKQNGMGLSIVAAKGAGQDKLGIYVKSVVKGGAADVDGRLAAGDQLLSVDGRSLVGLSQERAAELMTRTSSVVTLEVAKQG
Chain of NHERF2_1 PDZ (Q15599 11-90 limits assumed): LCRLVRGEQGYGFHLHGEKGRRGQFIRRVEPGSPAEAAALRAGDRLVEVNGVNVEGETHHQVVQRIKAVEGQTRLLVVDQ
Chain of PDZD2_5 PDZ (O15018 2622-2706 limits assumed): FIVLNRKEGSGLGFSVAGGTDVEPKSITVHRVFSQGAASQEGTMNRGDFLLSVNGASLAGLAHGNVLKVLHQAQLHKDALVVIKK
Chain of LNX2_2 PDZ (Q8N448 339-422 limits assumed): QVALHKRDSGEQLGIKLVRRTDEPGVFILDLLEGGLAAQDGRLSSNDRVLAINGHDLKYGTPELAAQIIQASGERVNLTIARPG
Chain of MAGI1_3 PDZ (Q96QZ7 643-721 limits assumed): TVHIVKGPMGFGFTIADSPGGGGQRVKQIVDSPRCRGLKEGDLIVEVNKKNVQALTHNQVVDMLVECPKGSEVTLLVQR
Chain of DLG5_4 PDZ (Q8TDM6 1501-1582 limits assumed): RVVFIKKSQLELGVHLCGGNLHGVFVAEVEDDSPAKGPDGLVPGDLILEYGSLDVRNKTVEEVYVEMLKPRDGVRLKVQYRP
Chain of MAGI1_6 PDZ (Q96QZ7 1124-1206 limits assumed): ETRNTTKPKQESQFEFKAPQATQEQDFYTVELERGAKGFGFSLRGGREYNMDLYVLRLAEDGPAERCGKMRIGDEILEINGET
Chain of IL16_2 PDZ (Q14005 355-440 limits assumed): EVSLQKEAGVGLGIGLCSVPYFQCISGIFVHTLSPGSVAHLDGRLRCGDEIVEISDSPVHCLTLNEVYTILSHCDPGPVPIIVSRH
Chain of MPDZ_4 PDZ (O75970 553-634 limits assumed): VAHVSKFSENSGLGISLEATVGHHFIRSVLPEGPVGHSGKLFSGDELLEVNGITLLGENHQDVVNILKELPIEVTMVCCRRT
Chain of MAGI2_6 PDZ (Q86UL8 1147-1229 limits assumed): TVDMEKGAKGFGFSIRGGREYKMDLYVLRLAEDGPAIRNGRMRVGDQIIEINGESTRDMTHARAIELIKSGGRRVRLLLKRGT
Chain of MAGI1_5 PDZ (Q96QZ7 970-1066 limits assumed): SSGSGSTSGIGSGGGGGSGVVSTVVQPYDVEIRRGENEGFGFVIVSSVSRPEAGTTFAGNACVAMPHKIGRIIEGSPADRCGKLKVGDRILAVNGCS
Chain of Inadl_8 PDZ (Q8NI35 1437-1520 limits assumed): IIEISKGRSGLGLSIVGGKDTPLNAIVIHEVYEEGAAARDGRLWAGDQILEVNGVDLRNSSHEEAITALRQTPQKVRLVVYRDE

Regarding `CC(C)C[C@H](NC(=O)[C@@H](N)CCCNC(=N)N)C(=O)N[C@@H](CCC(N)=O)C(=O)N[C@@H](CCCNC(=N)N)C(=O)N[C@@H](CCCNC(=N)N)C(=O)N[C@@H](CCCNC(=N)N)C(=O)N[C@@H](CCC(=O)O)C(=O)N[C@H](C(=O)N[C@@H](CCC(N)=O)C(=O)N[C@H](C(=O)O)C(C)C)[C@@H](C)O` [HPV18-E6], the Kd at LNX2_2 PDZ is 676 µM; on GOPC PDZ it was 661 µM; at RADIL PDZ, 525 µM; on Inadl_8 PDZ, 479 µM; at Inadl_5 PDZ it was 302 µM; on MPDZ_10 PDZ it was 275 µM.
With SKPTRRETEV [HPV35-E6], the Kd was 324 µM at MAGI2_6 PDZ; 19.1 µM on DLG5_2 PDZ; 219 µM at DLG5_4 PDZ; 269 µM at IL16_2 PDZ; 81.3 µM at MAGI1_3 PDZ; 37.2 µM on MAGI1_5 PDZ. The Kd at MAGI1_6 PDZ was 219 µM; at MAGI3_4 PDZ, 174 µM; at MAGI3_6 PDZ, 155 µM; on MAGIX PDZ, 275 µM; on MLLT4 PDZ, 162 µM; on MPDZ_4 PDZ it was 282 µM. The Kd at MPP3 PDZ was 200 µM; on NHERF2_1 PDZ, 170 µM; at NHERF4_3 PDZ, 166 µM; at PARD3B_3 PDZ, 186 µM; at PDLIM4 PDZ, 69.2 µM; at PDZD2_5 PDZ it was 170 µM. The Kd on PDZRN3_2 PDZ was 269 µM.
Take SRRPRTETQV [HPV31-E6]: the Kd on DFNB31_1 PDZ was 282 µM.
